Test results published in patent publication US10294202B2, “Pyrrolidinones as herbicides” (FMC Corporation, priority 2013, dated 2019).

Experiments:
field poppy = assay: Test D pre-/postemergence herbicide test; assay type: in vivo, Papaver rhoeas; details: for Plant response rating: Field Poppy, scale 0 to 100; for Plant response rating, Field Poppy: scale 0 to 100 (0 no effect, 100 complete control)
Description: (§1) Seeds of plant species selected from bluegrass (annual bluegrass, Poa annua), blackgrass (Alopecurus myosuroides), canarygrass (littleseed canarygrass, Phalaris minor), chickweed (common chickweed, Stellaria media), galium (catchweed bedstraw, Galium aparine), bromegrass, downy (downy bromegrass, Bromus tectorum), field poppy (Papaver rhoeas), field violet (Viola arvensis), foxtail, green (green foxtail, Setaria viridis), deadnettle (henbit deadnettle, Lamium amplexicaule), ryegrass, Italian (Italian ryegrass, Lolium multiflorum), kochia (Kochia scoparia), lambsquarters (Chenopodium album), oilseed rape (Brassica napus), pigweed (Amaranthus retroflexus), chamomile (scentless chamomile, Matricaria inodora), Russian thistle (Salsola kali), speedwell (bird's-eye speedwell, Veronica persica), barley, spring (spring barley, Hordeum vulgare), wheat, spring (spring wheat, Triticum aestivum), buckwheat, wild (wild buckwheat, Polygonum convolvulus), mustard, wild (wild mustard, Sinapis arvensis), oat, wild (wild oat, Avena fatua), radish, wild (wild radish, Raphanus raphanistrum), […]), barley, winter (winter barley, Hordeum vulgare), and wheat, winter (winter wheat, Triticum aestivum) were planted into a silt loam soil and treated preemergence with test chemicals formulated in a non-phytotoxic solvent mixture which included a surfactant. At the same time, these species were planted in pots containing Redi-Earth® planting medium (Scotts Company, 14111 Scottslawn Road, Marysville, Ohio 43041) comprising spaghnum peat moss, vermiculite, wetting agent and starter nutrients and treated with postemergence applications of the test chemicals formulated in the same manner. Plants ranged in height from 2 to 18 cm (1- to 4-leaf stage). Treated plants and controls were maintained in a controlled growth environment for 7 to 21 days after which time all species were compared to controls and visually evaluated. Plant response ratings, summarized in Table D, are based on a scale of 0 to 100 where 0 is no effect and 100 is complete control. A dash (-) response means no test result.

kochia = assay: Test D pre-/postemergence herbicide test; assay type: in vivo, Kochia scoparia; details: for Plant response rating: Kochia, scale 0 to 100; for Plant response rating, Kochia: scale 0 to 100 (0 no effect, 100 complete control)
Description: as §1

oilseed rape = assay: Test D pre-/postemergence herbicide test; assay type: in vivo, Brassica napus; details: for Plant response rating: Postemergence, Oilseed Rape, scale 0 to 100; for Plant response rating, Oilseed Rape: Preemergence, scale 0 to 100 (0 no effect, 100 complete control)
Description: as §1

chamomile = assay: Test D pre-/postemergence herbicide test; assay type: in vivo, Matricaria inodora; details: for Plant response rating: Chamomile, scale 0 to 100; for Plant response rating, Chamomile: scale 0 to 100 (0 no effect, 100 complete control)
Description: as §1

buckwheat, wild = assay: Test D pre-/postemergence herbicide test; assay type: in vivo, Polygonum convolvulus; details: for Plant response rating: Buckwheat, Wild, scale 0 to 100; for Plant response rating, Buckwheat, Wild: scale 0 to 100 (0 no effect, 100 complete control)
Description: as §1

lambsquarters = assay: Test E preemergence herbicide test; assay type: in vivo, Chenopodium album; design: key: 0 = no effect, 100 = complete control
Description: (§2) Seeds of plant species selected from corn (Zea mays), soybean (Glycine max), velvetleaf (Abutilon theophrasti), lambsquarters (Chenopodium album), wild poinsettia (Euphorbia heterophylla), pigweed, palmer (palmer pigweed, Amaranthus palmeri), waterhemp (common waterhemp, Amaranthus rudis), surinam grass (Brachiaria decumbens), crabgrass, large (large crabgrass, Digitaria sanguinalis), crabgrass, Brazil (Brazilian crabgrass, Digitaria horizontalis), panicum, fall (fall panicum, Panicum dichotomiflorum), foxtail, giant (giant foxtail, Setaria faberii), foxtail, green (green foxtail, Setaria viridis), goosegrass (Eleusine indica), johnsongrass (Sorghum halepense), ragweed (common ragweed, Ambrosia elatior), barnyardgrass (Echinochloa crus-galli), sandbur (southern sandbur, Cenchrus echinatus), arrowleaf […] rhombifolia), ryegrass, Italian (Italian ryegrass, Lolium multiflorum), dayflower, VA (Virginia dayflower, Commelina virginica), field bindweed (Convolvulus arvensis), morningglory (Ipomoea coccinea), nightshade (eastern black nightshade, Solanum ptycanthum), kochia (Kochia scoparia), nutsedge, yellow (yellow nutsedge, Cyperus esculentus), cocklebur (common cocklebur, Xanthium strumarium), smartweed (ladysthumb smartweed, Polygonum Persicaria) and beggarticks (hairy beggarticks, Bidens pilosa), were planted into a silt loam soil and treated preemergence with test chemicals formulated in a non-phytotoxic solvent mixture which included a surfactant. Treated plants and controls were maintained in a greenhouse for 21 days, after which time all species were compared to controls and visually evaluated. Plant response ratings, summarized in Table E, are based on a scale of 0 to 100 where 0 is no effect and 100 is complete control. A dash (-) response means no test result.

foxtail, giant = assay: Test E preemergence herbicide test; assay type: in vivo, Setaria faberii; design: key: 0 = no effect, 100 = complete control
Description: as §2

sandbur = assay: Test E preemergence herbicide test; assay type: in vivo, Cenchrus echinatus; design: key: 0 = no effect, 100 = complete control
Description: as §2

beggarticks = assay: Test E preemergence herbicide test; assay type: in vivo, Bidens pilosa; design: key: 0 = no effect, 100 = complete control
Description: as §2

O=C1NCC(c2ccc(F)c(F)c2)C1C(=O)Nc1cccc(F)c1 (racemic) [Compound 12]
60: Plant response rating (field poppy; Postemergence, 125 g ai/ha)
35: Plant response rating (kochia; Postemergence, 250 g ai/ha)
100: Plant response rating (buckwheat, wild; Preemergence, 250 g ai/ha)
80: Plant response rating (field poppy; Postemergence, 250 g ai/ha)
50: Plant response rating (field poppy; Postemergence, 62 g ai/ha)
5: Plant response rating (kochia; Postemergence, 16 g ai/ha) | Plant response rating (kochia; Postemergence, 31 g ai/ha)
20: Plant response rating (kochia; Postemergence, 62 g ai/ha) | Plant response rating (kochia; Postemergence, 125 g ai/ha) | Plant response rating (oilseed rape; 125 g ai/ha) | Plant response rating, Oilseed Rape (oilseed rape; 250 g ai/ha) | Plant response rating (chamomile; Preemergence, 250 g ai/ha)
10: Plant response rating (oilseed rape; 16 g ai/ha) | Plant response rating (oilseed rape; 31 g ai/ha) | Plant response rating (oilseed rape; 62 g ai/ha) | Plant response rating, Oilseed Rape (oilseed rape; 62 g ai/ha) | Plant response rating, Oilseed Rape (oilseed rape; 125 g ai/ha) | Plant response rating (buckwheat, wild; Postemergence, 62 g ai/ha) | Plant response rating (buckwheat, wild; Postemergence, 125 g ai/ha) | Plant response rating (buckwheat, wild; Postemergence, 250 g ai/ha)
25: Plant response rating (oilseed rape; 250 g ai/ha)
0: Plant response rating (field poppy; Postemergence, 16 g ai/ha) | Plant response rating (field poppy; Postemergence, 31 g ai/ha) | Plant response rating, Field Poppy (field poppy; Preemergence, 31 g ai/ha) | Plant response rating, Field Poppy (field poppy; Preemergence, 62 g ai/ha) | Plant response rating, Field Poppy (field poppy; Preemergence, 16 g ai/ha) | Plant response rating (field poppy; Preemergence, 125 g ai/ha) | Plant response rating (field poppy; Preemergence, 250 g ai/ha) | Plant response rating, Kochia (kochia; Preemergence, 31 g ai/ha) | Plant response rating, Kochia (kochia; Preemergence, 62 g ai/ha) | Plant response rating, Kochia (kochia; Preemergence, 16 g ai/ha) | Plant response rating (kochia; Preemergence, 125 g ai/ha) | Plant response rating (kochia; Preemergence, 250 g ai/ha) | Plant response rating, Oilseed Rape (oilseed rape; 31 g ai/ha) | Plant response rating, Oilseed Rape (oilseed rape; 16 g ai/ha) | Plant response rating (chamomile; Postemergence, 16 g ai/ha) | Plant response rating (chamomile; Postemergence, 31 g ai/ha) | Plant response rating (chamomile; Postemergence, 62 g ai/ha) | Plant response rating (chamomile; Postemergence, 125 g ai/ha) | Plant response rating (chamomile; Postemergence, 250 g ai/ha) | Plant response rating, Chamomile (chamomile; Preemergence, 31 g ai/ha) | Plant response rating, Chamomile (chamomile; Preemergence, 62 g ai/ha) | Plant response rating, Chamomile (chamomile; Preemergence, 16 g ai/ha) | Plant response rating (chamomile; Preemergence, 125 g ai/ha) | Plant response rating (buckwheat, wild; Postemergence, 16 g ai/ha) | Plant response rating (buckwheat, wild; Postemergence, 31 g ai/ha) | Plant response rating, Buckwheat, Wild (buckwheat, wild; Preemergence, 31 g ai/ha) | Plant response rating, Buckwheat, Wild (buckwheat, wild; Preemergence, 62 g ai/ha) | Plant response rating, Buckwheat, Wild (buckwheat, wild; Preemergence, 16 g ai/ha) | Plant response rating (buckwheat, wild; Preemergence, 125 g ai/ha)

O=C1NCC(c2ccc(F)cc2)C1C(=O)Nc1ccccc1F (racemic) [Compound 16]
35: Plant response rating, Sandbur (sandbur; 62 g ai/ha)
0: Plant response rating, Lambsquarters (lambsquarters; 16 g ai/ha) | Plant response rating, Lambsquarters (lambsquarters; 31 g ai/ha) | Plant response rating, Lambsquarters (lambsquarters; 62 g ai/ha) | Plant response rating, Lambsquarters (lambsquarters; 250 g ai/ha) | Plant response rating, Foxtail, Giant (foxtail, giant; 16 g ai/ha) | Plant response rating, Foxtail, Giant (foxtail, giant; 31 g ai/ha) | Plant response rating, Sandbur (sandbur; 16 g ai/ha) | Plant response rating, Sandbur (sandbur; 31 g ai/ha) | Plant response rating, Beggarticks (beggarticks; 16 g ai/ha) | Plant response rating, Beggarticks (beggarticks; 125 g ai/ha) | Plant response rating, Beggarticks (beggarticks; 250 g ai/ha)
70: Plant response rating, Sandbur (sandbur; 125 g ai/ha)
25: Plant response rating, Foxtail, Giant (foxtail, giant; 125 g ai/ha)
15: Plant response rating, Foxtail, Giant (foxtail, giant; 62 g ai/ha)
95: Plant response rating, Foxtail, Giant (foxtail, giant; 250 g ai/ha) | Plant response rating, Sandbur (sandbur; 250 g ai/ha)

O=C1NCC(c2cc(F)c(F)c(F)c2)C1C(=O)Nc1ccccc1C(F)(F)F (racemic) [Compound 33]
10: Plant response rating (kochia; Postemergence, 250 g ai/ha) | Plant response rating (oilseed rape; 62 g ai/ha) | Plant response rating (buckwheat, wild; Postemergence, 250 g ai/ha)
20: Plant response rating (oilseed rape; 125 g ai/ha)
0: Plant response rating (field poppy; Postemergence, 16 g ai/ha) | Plant response rating (field poppy; Postemergence, 31 g ai/ha) | Plant response rating (field poppy; Postemergence, 62 g ai/ha) | Plant response rating (field poppy; Postemergence, 125 g ai/ha) | Plant response rating (field poppy; Postemergence, 250 g ai/ha) | Plant response rating (kochia; Postemergence, 16 g ai/ha) | Plant response rating (kochia; Postemergence, 31 g ai/ha) | Plant response rating (kochia; Postemergence, 62 g ai/ha) | Plant response rating (kochia; Postemergence, 125 g ai/ha) | Plant response rating (oilseed rape; 16 g ai/ha) | Plant response rating (oilseed rape; 31 g ai/ha) | Plant response rating (chamomile; Postemergence, 16 g ai/ha) | Plant response rating (chamomile; Postemergence, 31 g ai/ha) | Plant response rating (chamomile; Postemergence, 62 g ai/ha) | Plant response rating (chamomile; Postemergence, 125 g ai/ha) | Plant response rating (chamomile; Postemergence, 250 g ai/ha) | Plant response rating (buckwheat, wild; Postemergence, 16 g ai/ha) | Plant response rating (buckwheat, wild; Postemergence, 31 g ai/ha) | Plant response rating (buckwheat, wild; Postemergence, 62 g ai/ha) | Plant response rating (buckwheat, wild; Postemergence, 125 g ai/ha)
30: Plant response rating (oilseed rape; 250 g ai/ha)

O=C1NCC(c2cccc(C(F)(F)F)c2)C1C(=O)Nc1ccc(F)cc1F (racemic) [Compound 207]
25: Plant response rating, Buckwheat, Wild (buckwheat, wild; Preemergence, 125 g ai/ha)
60: Plant response rating (kochia; Preemergence, 250 g ai/ha)
85: Plant response rating, Chamomile (chamomile; Preemergence, 125 g ai/ha) | Plant response rating (chamomile; Preemergence, 250 g ai/ha)
75: Plant response rating, Field Poppy (field poppy; Preemergence, 62 g ai/ha) | Plant response rating, Chamomile (chamomile; Preemergence, 31 g ai/ha)
100: Plant response rating (field poppy; Preemergence, 250 g ai/ha)
55: Plant response rating, Field Poppy (field poppy; Preemergence, 31 g ai/ha)
10: Plant response rating, Kochia (kochia; Preemergence, 31 g ai/ha) | Plant response rating, Kochia (kochia; Preemergence, 62 g ai/ha) | Plant response rating, Kochia (kochia; Preemergence, 125 g ai/ha)
80: Plant response rating, Field Poppy (field poppy; Preemergence, 125 g ai/ha) | Plant response rating, Chamomile (chamomile; Preemergence, 62 g ai/ha)
15: Plant response rating, Buckwheat, Wild (buckwheat, wild; Preemergence, 62 g ai/ha)
0: Plant response rating, Oilseed Rape (oilseed rape; 31 g ai/ha) | Plant response rating, Oilseed Rape (oilseed rape; 62 g ai/ha) | Plant response rating, Oilseed Rape (oilseed rape; 125 g ai/ha) | Plant response rating, Oilseed Rape (oilseed rape; 250 g ai/ha) | Plant response rating, Buckwheat, Wild (buckwheat, wild; Preemergence, 31 g ai/ha)
35: Plant response rating (buckwheat, wild; Preemergence, 250 g ai/ha)

O=C1NCC(c2cccc(C(F)(F)F)c2)C1C(=O)Nc1cccc(F)c1F (centres unmarked) [Compound 241]
0: Plant response rating, Oilseed Rape (oilseed rape; 31 g ai/ha) | Plant response rating, Oilseed Rape (oilseed rape; 62 g ai/ha)
10: Plant response rating, Oilseed Rape (oilseed rape; 250 g ai/ha)
100: Plant response rating (field poppy; Preemergence, 250 g ai/ha)
30: Plant response rating, Kochia (kochia; Preemergence, 62 g ai/ha)
95: Plant response rating, Field Poppy (field poppy; Preemergence, 62 g ai/ha) | Plant response rating, Field Poppy (field poppy; Preemergence, 125 g ai/ha)
80: Plant response rating, Kochia (kochia; Preemergence, 125 g ai/ha) | Plant response rating (buckwheat, wild; Preemergence, 250 g ai/ha)
90: Plant response rating, Field Poppy (field poppy; Preemergence, 31 g ai/ha)
70: Plant response rating (kochia; Preemergence, 250 g ai/ha)
5: Plant response rating, Oilseed Rape (oilseed rape; 125 g ai/ha)
20: Plant response rating, Kochia (kochia; Preemergence, 31 g ai/ha) | Plant response rating, Buckwheat, Wild (buckwheat, wild; Preemergence, 125 g ai/ha)
15: Plant response rating, Buckwheat, Wild (buckwheat, wild; Preemergence, 31 g ai/ha) | Plant response rating, Buckwheat, Wild (buckwheat, wild; Preemergence, 62 g ai/ha)
